Test results as given in patent publication US20240066003A1, “NEURODEVELOPMENTAL DISORDER THERAPY” (Anavex Life Sciences Corp., priority 2016, published 2024).

Experiments:
[1] = Body weight of Mecp2 HET mice under chronic dosing; assay type: in vivo; details: 30 mg/kg p.o. daily, 6.5 weeks after dosing began; Treatment×Age effect p<0.001
Method: Studies employed wild type (WT) mice and heterozygous MECP2knockout mice (HET) All mice were provided by Jackson Laboratory, Bar Harbor, Maine. HET mice were Bird mice (Jackson Laboratories, Bar Harbor, ME, B6.129P2(C)-Mecp2^tm1.1Bird/Stock Number: 003890) were obtained by crossing het females with wild type (WT) males (C57B/6J). […] Mecp2 females testing at ˜8 and ˜12 weeks of age WT—vehicle (0.25% MC/dH2O) HET—vehicle (0.25% MC/dH2O) HET—A2-733 (10 mg/kg) HET—A2-733 (30 mg/kg) Chronic dosing (p.o.) daily, starting at ˜5.5 weeks of age and continuing through the 12-week behavioral testing time point 60 min pre-treatment during behavioral testing. […] FIG. 1 There was a significant Treatment×Age effect (p<0.001), where mice treated with A2-733 (30 mg/kg) weighed less than vehicle-treated mutant mice 6.5 weeks after dosing began.

Williams syndrome = assay: Example 6 weight gain in Williams syndrome patient; assay type: in vivo, human; details: person, i.v. 5 mg every other day, after 60 days
Method: A person presents with Williams syndrome. […] They begin treatment with i.v. doses of A2-73 at 5 mg every other day.

Angelman syndrome = assay: Example 5 sleep and seizures in Angelman syndrome patient; assay type: in vivo, human; details: person, oral 30 mg/day, after 15 days
Method: A person presents with Angelman syndrome. They experience disturbed sleep and frequent seizures prior to commencing therapy. They begin treatment with oral doses of A2-73 at 30 mg/day.

sigma-1 receptors = sigma-1 receptors (Homo sapiens, UniProt Q99720); details: believed to bind; cited from earlier work
[2] = tested on: heterozygous MECP2knockout mice (HET); assay: NeuroCube gait analysis; assay type: in vivo
Method: Studies employed wild type (WT) mice and heterozygous MECP2knockout mice (HET) All mice were provided by Jackson Laboratory, Bar Harbor, Maine. HET mice were Bird mice (Jackson Laboratories, Bar Harbor, ME, B6.129P2(C)-Mecp2^tm1.1Bird/Stock Number: 003890) were obtained by crossing het females with wild type (WT) males (C57B/6J). […] Mecp2 females testing at ˜8 and ˜12 weeks of age WT—vehicle (0.25% MC/dH2O) HET—vehicle (0.25% MC/dH2O) HET—A2-733 (10 mg/kg) HET—A2-733 (30 mg/kg) Chronic dosing (p.o.) daily, starting at ˜5.5 weeks of age and continuing through the 12-week behavioral testing time point 60 min pre-treatment during behavioral testing. Neurological testing via a platform that employs computer vision to detect changes in gait geometry and gait dynamics in rodent models of neurological disorders, pain, and neuropathies. Complex bio-informatics algorithms similar to those used in SmartCube® are employed to detect a disease phenotype and screen compounds. (NeuroCube, PsychoGenics, Tarrytown NY) A platform that employs computer vision to detect changes in gait geometry and gait dynamics in rodent models of neurological disorders, pain, and neuropathies. Mice are allowed to walk in the chamber for 5 min. When the paw touches the screen, LED light reflects creating bright spots. Images are captured and processed using proprietary computer vision and bio-informatics data mining algorithms.

Rett syndrome = assay: Example 2 cardiac pulse rate in Rett syndrome patient; assay type: in vivo, human; details: person, oral 20 mg daily for 5 days
Description: A person presents with Rett syndrome. Their real time cardiac pulse rate is monitored. Prior to commencing therapy, their heart rate is 49 beats per minute with substantial variability.

[3] = tested on: heterozygous MECP2knockout mice (HET); assay: Rotarod; assay type: in vivo
Method: Studies employed wild type (WT) mice and heterozygous MECP2knockout mice (HET) All mice were provided by Jackson Laboratory, Bar Harbor, Maine. HET mice were Bird mice (Jackson Laboratories, Bar Harbor, ME, B6.129P2(C)-Mecp2^tm1.1Bird/Stock Number: 003890) were obtained by crossing het females with wild type (WT) males (C57B/6J). […] Mecp2 females testing at ˜8 and ˜12 weeks of age WT—vehicle (0.25% MC/dH2O) HET—vehicle (0.25% MC/dH2O) HET—A2-733 (10 mg/kg) HET—A2-733 (30 mg/kg) Chronic dosing (p.o.) daily, starting at ˜5.5 weeks of age and continuing through the 12-week behavioral testing time point 60 min pre-treatment during behavioral testing. The rotarod performance test is a performance test based on a rotating rod with forced motor activity being applied, usually by a rodent. The test measures parameters such as riding time (seconds) or endurance. Some of the functions of the test include evaluating balance, grip strength, and motor coordination of the subjects; especially in testing the effect of experimental drugs or after traumatic brain injury. Mice are placed on the rotarod apparatus (PsychoGenics, Tarrytown New York) consisting of a rod that rotates at a constant or variable and accelerating speed of 4 rpm. Once a mouse loses its balance and falls onto an underlying platform the timer automatically stops. Mice are exposed to the apparatus for 5 min training at a constant speed and placed back on the rod after each fall. After a rest period of at least 1 hr. animals are placed back on the rotarod apparatus for testing. Once all animals in a test session are loaded on the rod, the rotarod apparatus is placed on accelerating speed (0-40 rpm) over 5 min and the time until the first fall is recorded. The test is repeated three consecutive times per animal. For each test session, the RPM score at time of fall off the rod are recorded.

Smith—Magenis syndrome = assay: Example 7 sleep in Smith-Magenis syndrome patient; assay type: in vivo, human; details: person, oral 10 mg/day, after 15 days
Method: A person presents with Smith—Magenis syndrome. They experience disturbed sleep. They begin treatment with oral doses of A2-73 at 10 mg/day.

[4] = 8 weeks of age, 10 and 30 mg/kg p.o. daily, HET mice
[5] = 12 weeks of age, both doses (10 and 30 mg/kg p.o. daily)

sigma-1 receptors, sequence (Q99720 whole entry): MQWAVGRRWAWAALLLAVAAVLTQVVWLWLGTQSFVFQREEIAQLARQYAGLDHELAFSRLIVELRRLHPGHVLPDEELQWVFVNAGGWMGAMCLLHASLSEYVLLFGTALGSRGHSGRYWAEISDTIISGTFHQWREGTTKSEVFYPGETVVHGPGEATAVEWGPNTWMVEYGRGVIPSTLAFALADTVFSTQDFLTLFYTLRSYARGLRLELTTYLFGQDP

For CN(C)CC1CCOC1(c1ccccc1)c1ccccc1.Cl (stereo not drawn) [A2-73, tetrahydro-N,N-dimethyl-2,2-diphenyl-3-furanmethanamine hydrochloride], the “body weight vs vehicle-treated mutant mice” value [1] was “weighed less”, the weight gain (Williams syndrome) was 10% and the “reduction of instances of seizure” value (Angelman syndrome) was 50%. The sleep (Angelman syndrome) was “markedly less disturbed”, the “affinity for sigma-1 receptors” value (sigma-1 receptors) was “low micromolar range” and the “NeuroCube GAIT, Het vehicle v. Het AV2-73” value (from here on “NeuroCube GAIT”) ([2]; 8 week, 10 mg/kg, p > 0.09) was 63, p > 0.09. For the same molecule, the “NeuroCube Body Motion, Het vehicle v. Het AV2-73” value (“NeuroCube Body Motion” for short) ([2]; 8 week, 10 mg/kg, p > 0.20) was 60, p > 0.20, the “NeuroCube Correlation, Het vehicle v. Het AV2-73” value (“NeuroCube Correlation” below) ([2]; 8 week, 10 mg/kg, p > 0.40) was 56, p > 0.40 and the “NeuroCube Paw Positioning, Het vehicle v. Het AV2-73” value (shortened to “NeuroCube Paw Positioning”) ([2]; 8 week, 10 mg/kg, p > 0.57) was 53, p > 0.57. For the same molecule, the “NeuroCube Overall, Het vehicle v. Het AV2-73” value (“NeuroCube Overall” for short) ([2]; 8 week, 10 mg/kg, p > 0.69) was 53, p > 0.69, the “NeuroCube Paw Features, Het vehicle v. Het AV2-73” value (“NeuroCube Paw Features” below) ([2]; 8 week, 10 mg/kg, p > 0.78) was 52, p > 0.78 and the “NeuroCube Body Motion” value ([2]; 8 week, 30 mg/kg, p < 0.003) was 81, p < 0.003. For the same molecule, the “NeuroCube Correlation” value ([2]; 8 week, 30 mg/kg, p < 0.005) was 76, p < 0.005, the “NeuroCube GAIT” value ([2]; 8 week, 30 mg/kg, p < 0.05) was 69, p < 0.05 and the “NeuroCube Overall” value ([2]; 8 week, 30 mg/kg, p > 0.24) was 62, p > 0.24. The “NeuroCube Paw Positioning” value ([2]; 8 week, 30 mg/kg, p > 0.36) was 57, p > 0.36, the “NeuroCube Paw Features” value ([2]; 8 week, 30 mg/kg, p > 0.56) was 55, p > 0.56 and the “NeuroCube separation versus Het vehicle” value ([2]; 8 weeks of age) was “no separation”. For the same molecule, the “recovery of the overall signature” value ([2]; 8 weeks of age, NeuroCube) was 9-17%, the “NeuroCube GAIT” value ([2]; 12 week, 10 mg/kg, p > 0.29) was 57, p > 0.29 and the “NeuroCube Paw Features” value ([2]; 12 week, 10 mg/kg, p > 0.35) was 56, p > 0.35. For the same molecule, the “NeuroCube Paw Positioning” value ([2]; 12 week, 10 mg/kg, p > 0.57) was 53, p > 0.57, the “NeuroCube Correlation” value ([2]; 12 week, 10 mg/kg, p > 0.70) was 53, p > 0.70 and the “NeuroCube Overall” value ([2]; 12 week, 10 mg/kg, p > 0.70) was 53, p > 0.70. For the same molecule, the “NeuroCube Body Motion” value ([2]; 12 week, 10 mg/kg, p > 0.71) was 52, p > 0.71, the “NeuroCube Correlation” value ([2]; 12 week, 30 mg/kg, p < 0.03) was 69, p < 0.03 and the “NeuroCube Body Motion” value ([2]; 12 week, 30 mg/kg, p < 0.04) was 68, p < 0.04. The “NeuroCube Overall” value ([2]; 12 week, 30 mg/kg, p > 0.21) was 61, p > 0.21, the “NeuroCube GAIT” value ([2]; 12 week, 30 mg/kg, p > 0.37) was 57, p > 0.37 and the “NeuroCube Paw Positioning” value ([2]; 12 week, 30 mg/kg, p > 0.62) was 53, p > 0.62. For the same molecule, the “NeuroCube Paw Features” value ([2]; 12 week, 30 mg/kg, p > 0.65) was 53, p > 0.65, the heart rate variability (Rett syndrome) was “variability is reduced” and the average heart rate (Rett syndrome; 49 beats per minute before therapy) was 75 beats per minutes. For the same molecule, the “rotarod speed at fall, treatment effect” value [3, 4] was “No significant treatment effects”, the “rotarod time to fall, treatment effect” value [3, 4] was “No significant treatment effects” and the “rotarod speed at fall vs vehicle-treated mutant mice” value [3, 5] was “fell at higher speeds”. For the same molecule, the “rotarod time to fall vs vehicle-treated mutant mice” value [3, 5] was “took more time to fall off the rod”, the “rotarod speed at fall, without outliers” value ([3]; 12 weeks of age, higher dose (30 mg/kg), outliers removed) was “effect at the higher dose disappeared” and the sleep (Smith—Magenis syndrome) was “markedly less disturbed”.
